Measurements as given in patent publication US20240327463A1, “ANTIBACTERIAL PRODUCTS” (priority 2017, published 2024).
Values after ≈ are worked out from the molar mass of the structure shown. Bridge positions count the residues as written; N and C are the ends. Square brackets hold non-standard residues; d marks the D form. Peptide text beside a SMILES is read from it. ξ: configuration not given here. dNMeF = CN[C@H](Cc1ccccc1)C(=O)O; Ile(3ξ) = CCC(C)[C@H](N)C(=O)O; Chg = N[C@H](C(=O)O)C1CCCCC1; Nva = CCC[C@H](N)C(=O)O

These molecules were tested on MRSA ATCC 33591. Conditions: ATCC 33591.
Experimental: For MIC testing all peptides were dissolved in DMSO (according to the method of L. L. Ling, et al., Nature 2015, 517, 455-459). Bacteria were grown on Mueller Hinton broth (oxoid). All incubations were at 37° C. Dilutions were carried out using Mueller Hinton. 100 μl of autoclaved Mueller Hinton broth was added to wells 2-12 on a 96-well plate. 200 μl of the peptide was added to well one at a concentration of 512 μg/ml. 100 μl of peptide in well one was taken up and pipetted into well two. The mixture was then mixed via pipetting before 100 μl was taken up and pipetted into well three. This process was repeated up to well 11. […] This was repeated three times. The 96-well plates were then incubated for 24 hours. The MIC was determined to be the lowest concentration at which there was no growth visible.

In order of falling “MIC (MRSA)” value:
1. CCC[C@@H]1NC(=O)[C@H](CCCNC(=N)N)NC(=O)[C@H](NC(=O)[C@H](CO)NC(=O)[C@@H](NC(=O)[C@H](NC(=O)[C@@H](CCCNC(=N)N)NC(=O)[C@H](CCCNC(=N)N)NC(=O)[C@@H](NC(=O)[C@@H](Cc2ccccc2)NC)[C@@H](C)CC)[C@H](C)CC)[C@@H](C)CC)[C@H](C)OC(=O)[C@H]([C@@H](C)CC)NC1=O [Compound 51, Arg3-D-Arg4-Arg9-Nva10-teixobactin] (H-[dNMeF]IR[dR][dI]IS[dT]R[Nva]I; ester 8-C)  64 µg/mL (≈ 46.7 µM)
2. CC[C@@H](C)[C@@H](NC(=O)[C@@H](CCCNC(=N)N)NC(=O)[C@H](CCCNC(=N)N)NC(=O)[C@@H](NC(=O)[C@@H](Cc1ccccc1)NC)[C@@H](C)CC)C(=O)N[C@H](C(=O)N[C@@H](CO)C(=O)N[C@H]1C(=O)N[C@@H](CCCNC(=N)N)C(=O)N[C@@H](C2CCCCC2)C(=O)N[C@@H]([C@@H](C)CC)C(=O)O[C@H]1C)[C@@H](C)CC [Compound 43, Arg3-D-Arg4-Arg9-Chg10-teixobactin] (H-[dNMeF]IR[dR][dI]IS[dT]R[Chg]I; ester 8-C)  64 µg/mL (≈ 45.4 µM)
3. CC[C@@H](C)[C@@H](NC(=O)[C@@H](CCCNC(=N)N)NC(=O)[C@H](CCCNC(=N)N)NC(=O)[C@@H](NC(=O)[C@@H](Cc1ccccc1)NC)[C@@H](C)CC)C(=O)N[C@H](C(=O)N[C@@H](CO)C(=O)N[C@H]1C(=O)N[C@@H](C)C(=O)N[C@@H](C2CCCCC2)C(=O)N[C@@H]([C@@H](C)CC)C(=O)O[C@H]1C)[C@@H](C)CC [Compound 40, Arg3-D-Arg4-Chg10-teixobactin] (H-[dNMeF]IR[dR][dI]IS[dT]A[Chg]I; ester 8-C)  1 µg/mL (≈ 0.755 µM)
4. CCC[C@@H]1NC(=O)[C@H](C)NC(=O)[C@H](NC(=O)[C@H](CO)NC(=O)[C@@H](NC(=O)[C@H](NC(=O)[C@@H](CCC(N)=O)NC(=O)[C@H](CCCNC(=N)N)NC(=O)[C@@H](NC(=O)[C@@H](Cc2ccccc2)NC)[C@@H](C)CC)[C@H](C)CC)[C@@H](C)CC)[C@H](C)OC(=O)[C@H]([C@@H](C)CC)NC1=O [Compound 45, Arg3-Nva10-teixobactin] (H-[dNMeF]IR[dQ][dI]IS[dT]A[Nva]I; ester 8-C)  1 µg/mL (≈ 0.796 µM)
5. CC[C@@H](C)[C@@H](NC(=O)[C@@H](CCC(N)=O)NC(=O)[C@H](CO)NC(=O)[C@@H](NC(=O)[C@@H](Cc1ccccc1)NC)[C@@H](C)CC)C(=O)N[C@H](C(=O)N[C@@H](CO)C(=O)N[C@H]1C(=O)N[C@@H](CCCNC(=N)N)C(=O)N[C@@H](C2CCCCC2)C(=O)N[C@@H]([C@@H](C)CC)C(=O)O[C@H]1C)[C@@H](C)CC [Compound 39, Arg9-Chg10-teixobactin]  1 µg/mL (≈ 0.762 µM)
6. CC[C@@H](C)[C@@H](NC(=O)[C@@H](CCCNC(=N)N)NC(=O)[C@H](CO)NC(=O)[C@@H](NC(=O)[C@@H](Cc1ccccc1)NC)[C@@H](C)CC)C(=O)N[C@H](C(=O)N[C@@H](CO)C(=O)N[C@H]1C(=O)N[C@@H](CCCNC(=N)N)C(=O)N[C@@H](C2CCCCC2)C(=O)N[C@@H]([C@@H](C)CC)C(=O)O[C@H]1C)[C@@H](C)CC [Compound 42, D-Arg4-Arg9-Chg10-teixobactin] (H-[dNMeF]IS[dR][dI]IS[dT]R[Chg]I; ester 8-C)  0.5 µg/mL (≈ 0.373 µM)
7. CC[C@@H](C)[C@@H](NC(=O)[C@@H](CCC(N)=O)NC(=O)[C@H](CCCNC(=N)N)NC(=O)[C@@H](NC(=O)[C@@H](Cc1ccccc1)NC)[C@@H](C)CC)C(=O)N[C@H](C(=O)N[C@@H](CO)C(=O)N[C@H]1C(=O)N[C@@H](C)C(=O)N[C@@H](C2CCCCC2)C(=O)N[C@@H]([C@@H](C)CC)C(=O)O[C@H]1C)[C@@H](C)CC [Compound 37, Arg3-Chg10-teixobactin]  0.5 µg/mL (≈ 0.386 µM)
8. CCC(C)[C@@H]1NC(=O)[C@H](C)NC(=O)[C@H](NC(=O)[C@H](CO)NC(=O)[C@@H](NC(=O)[C@H](NC(=O)[C@@H](CCCNC(=N)N)NC(=O)[C@H](CCCNC(=N)N)NC(=O)[C@@H](NC(=O)[C@@H](Cc2ccccc2)NC)[C@@H](C)CC)[C@H](C)CC)[C@@H](C)CC)[C@H](C)OC(=O)[C@H]([C@@H](C)CC)NC1=O (stereo partly drawn) [Compound 35, Arg3-D-Arg4-Ile10-teixobactin] (H-[dNMeF]IR[dR][dI]IS[dT]A[Ile(3ξ)]I; ester 8-C)  0.5 µg/mL (≈ 0.385 µM)
9. CCC[C@@H]1NC(=O)[C@H](C)NC(=O)[C@H](NC(=O)[C@H](CO)NC(=O)[C@@H](NC(=O)[C@H](NC(=O)[C@@H](CCC(N)=O)NC(=O)[C@H](CO)NC(=O)[C@@H](NC(=O)[C@@H](Cc2ccccc2)NC)[C@@H](C)CC)[C@H](C)CC)[C@@H](C)CC)[C@H](C)OC(=O)[C@H]([C@@H](C)CC)NC1=O [Compound 44, Nva10-teixobactin]  0.5 µg/mL (≈ 0.421 µM)
10. CC[C@@H](C)[C@@H](NC(=O)[C@@H](CCC(N)=O)NC(=O)[C@H](CCCNC(=N)N)NC(=O)[C@@H](NC(=O)[C@@H](Cc1ccccc1)NC)[C@@H](C)CC)C(=O)N[C@H](C(=O)N[C@@H](CO)C(=O)N[C@H]1C(=O)N[C@@H](CCCNC(=N)N)C(=O)N[C@@H](C2CCCCC2)C(=O)N[C@@H]([C@@H](C)CC)C(=O)O[C@H]1C)[C@@H](C)CC [Compound 41, Arg3-Arg9-Chg10-teixobactin] (H-[dNMeF]IR[dQ][dI]IS[dT]R[Chg]I; ester 8-C)  0.5 µg/mL (≈ 0.362 µM)
11. CCC[C@@H]1NC(=O)[C@H](CCCNC(=N)N)NC(=O)[C@H](NC(=O)[C@H](CO)NC(=O)[C@@H](NC(=O)[C@H](NC(=O)[C@@H](CCC(N)=O)NC(=O)[C@H](CCCNC(=N)N)NC(=O)[C@@H](NC(=O)[C@@H](Cc2ccccc2)NC)[C@@H](C)CC)[C@H](C)CC)[C@@H](C)CC)[C@H](C)OC(=O)[C@H]([C@@H](C)CC)NC1=O [Compound 49, Arg3-Arg9-Nva10-teixobactin] (H-[dNMeF]IR[dQ][dI]IS[dT]R[Nva]I; ester 8-C)  0.5 µg/mL (≈ 0.373 µM)
12. CC[C@@H](C)[C@@H](NC(=O)[C@@H](CCCNC(=N)N)NC(=O)[C@H](CO)NC(=O)[C@@H](NC(=O)[C@@H](Cc1ccccc1)NC)[C@@H](C)CC)C(=O)N[C@H](C(=O)N[C@@H](CO)C(=O)N[C@H]1C(=O)N[C@@H](C)C(=O)N[C@@H](C2CCCCC2)C(=O)N[C@@H]([C@@H](C)CC)C(=O)O[C@H]1C)[C@@H](C)CC [Compound 38, D-Arg4-Chg10-teixobactin]  0.5 µg/mL (≈ 0.398 µM)

`CC[C@@H](C)[C@@H](NC(=O)[C@@H](CCC(N)=O)NC(=O)[C@H](CO)NC(=O)[C@@H](NC(=O)[C@@H](Cc1ccccc1)NC)[C@@H](C)CC)C(=O)N[C@H](C(=O)N[C@@H](CO)C(=O)N[C@H]1C(=O)N[C@@H](C)C(=O)N[C@H](C)C(=O)N[C@@H]([C@@H](C)CC)C(=O)O[C@H]1C)[C@@H](C)CC` [Compound 15] and `CC[C@@H](C)[C@@H](NC(=O)[C@@H](CCC(N)=O)NC(=O)[C@H](CO)NC(=O)[C@@H](NC(=O)[C@@H](Cc1ccccc1)NC)[C@@H](C)CC)C(=O)N[C@H](C(=O)N[C@@H](C)C(=O)N[C@H]1C(=O)N[C@@H](C)C(=O)N[C@@H](CCCNC(=N)N)C(=O)N[C@@H]([C@@H](C)CC)C(=O)O[C@H]1C)[C@@H](C)CC` [Compound 13, reference compound] (H-[dNMeF]IS[dQ][dI]IA[dT]ARI; ester 8-C) cannot be ordered by “MIC (MRSA*)” value: 32 µg/mL (≈ 27.6 µM) for the first, 16 to 32 µg/mL for the second.

First: CC[C@@H](C)[C@@H](NC(=O)[C@@H](C)NC(=O)[C@H](CO)NC(=O)[C@@H](NC(=O)[C@@H](Cc1ccccc1)NC)[C@@H](C)CC)C(=O)N[C@H](C(=O)N[C@@H](CO)C(=O)N[C@H]1C(=O)N[C@@H](C)C(=O)N[C@@H](CCCNC(=N)N)C(=O)N[C@@H]([C@@H](C)CC)C(=O)O[C@H]1C)[C@@H](C)CC [Compound 10] (H-[dNMeF]IS[dA][dI]IS[dT]ARI; ester 8-C)
Second: CC[C@@H](C)[C@@H](NC(=O)[C@@H](CCC(N)=O)NC(=O)[C@H](C)NC(=O)[C@@H](NC(=O)[C@@H](Cc1ccccc1)NC)[C@@H](C)CC)C(=O)N[C@H](C(=O)N[C@@H](CO)C(=O)N[C@H]1C(=O)N[C@@H](C)C(=O)N[C@@H](CCCNC(=N)N)C(=O)N[C@@H]([C@@H](C)CC)C(=O)O[C@H]1C)[C@@H](C)CC [Compound 9] (H-[dNMeF]IA[dQ][dI]IS[dT]ARI; ester 8-C)
The “MIC (MRSA*)” value of the first is higher: 2 to 4 µg/mL for the first, 1 to 2 µg/mL for the second.

With `CC[C@@H](C)[C@@H](NC(=O)[C@@H](CCC(N)=O)NC(=O)[C@H](CO)NC(=O)[C@H](C)NC(=O)[C@@H](Cc1ccccc1)NC)C(=O)N[C@H](C(=O)N[C@@H](CO)C(=O)N[C@H]1C(=O)N[C@@H](C)C(=O)N[C@@H](CCCNC(=N)N)C(=O)N[C@@H]([C@@H](C)CC)C(=O)O[C@H]1C)[C@@H](C)CC` [Compound 8] (H-[dNMeF]AS[dQ][dI]IS[dT]ARI; ester 8-C) the “MIC (MRSA*)” value was over 128 µg/mL.
`CC[C@@H](C)[C@@H](NC(=O)[C@@H](CCC(N)=O)NC(=O)[C@H](CO)NC(=O)[C@@H](NC(=O)[C@@H](Cc1ccccc1)NC)[C@@H](C)CC)C(=O)N[C@@H](C)C(=O)N[C@@H](CO)C(=O)N[C@H]1C(=O)N[C@@H](C)C(=O)N[C@@H](CCCNC(=N)N)C(=O)N[C@@H]([C@@H](C)CC)C(=O)O[C@H]1C` [Compound 12] (H-[dNMeF]IS[dQ][dI]AS[dT]ARI; ester 8-C) was tested, and the “MIC (MRSA*)” value was over 128 µg/mL.

In the case of `CCC[C@@H]1NC(=O)[C@H](C)NC(=O)[C@H](NC(=O)[C@H](CO)NC(=O)[C@@H](NC(=O)[C@H](NC(=O)[C@@H](CCCNC(=N)N)NC(=O)[C@H](CCCNC(=N)N)NC(=O)[C@@H](NC(=O)[C@@H](Cc2ccccc2)NC)[C@@H](C)CC)[C@H](C)CC)[C@@H](C)CC)[C@H](C)OC(=O)[C@H]([C@@H](C)CC)NC1=O` [Compound 48, Arg3-D-Arg4-Nva10-teixobactin] (H-[dNMeF]IR[dR][dI]IS[dT]A[Nva]I; ester 8-C), the “MIC (MRSA)” value is reported as over 64 µg/mL.
